Data from patent publication US8192962B2, “Processes for detecting toxic substances” (Daikin Industries, Ltd., priority 2001, dated 2012).

System: Unknown protein yeast genes
Assay: DNA chip mRNA expression in yeast, unknown protein yeast genes (Table 1)
Type: cell-based, Saccharomyces cerevisiae S288C
Summary of the method: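 Ratios compare mRNA levels in stressed and control S. cerevisiae. Each toxicant was applied for two hours to log-phase cultures at 25° C. at a sub-lethal, growth-inhibiting level; fluorescent cDNA (Cy3- or Cy5-dUTP) was hybridized to a genome-wide yeast chip for over 12 h at 65° C.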

O=[N+]([O-])c1cc[n+]([O-])c2ccccc12 [(5), 4-nitroquinolin-N-oxide]
The level of expressed mRNA in the presence of chemical substance/The level of expressed mRNA in the absence of chemical substance (yeast gene YAL053W, incubated two hours with chemical substance): 0.8
The level of expressed mRNA in the presence of chemical substance/The level of expressed mRNA in the absence of chemical substance (yeast gene YAR023C): 1.3
The level of expressed mRNA in the presence of chemical substance/The level of expressed mRNA in the absence of chemical substance (yeast gene YBL048W): 1.3
The level of expressed mRNA in the presence of chemical substance/The level of expressed mRNA in the absence of chemical substance (yeast gene YBL107C): 1.2
The level of expressed mRNA in the presence of chemical substance/The level of expressed mRNA in the absence of chemical substance (yeast gene YDL072C, incubated two hours with chemical substance): 1.4
The level of expressed mRNA in the presence of chemical substance/The level of expressed mRNA in the absence of chemical substance (yeast gene YDL086W): 1.3
The level of expressed mRNA in the presence of chemical substance/The level of expressed mRNA in the absence of chemical substance (yeast gene YDL129W): 1.3
The level of expressed mRNA in the presence of chemical substance/The level of expressed mRNA in the absence of chemical substance (yeast gene YDL204W, incubated two hours with chemical substance): 1.0
The level of expressed mRNA in the presence of chemical substance/The level of expressed mRNA in the absence of chemical substance (yeast gene YDL222C, incubated two hours with chemical substance): 1.0
The level of expressed mRNA in the presence of chemical substance/The level of expressed mRNA in the absence of chemical substance (yeast gene YDR330W, incubated two hours with chemical substance): 1.2
The level of expressed mRNA in the presence of chemical substance/The level of expressed mRNA in the absence of chemical substance (yeast gene YDR359C): 1.3
The level of expressed mRNA in the presence of chemical substance/The level of expressed mRNA in the absence of chemical substance (yeast gene YDR411C, incubated two hours with chemical substance): 1.6
The level of expressed mRNA in the presence of chemical substance/The level of expressed mRNA in the absence of chemical substance (yeast gene YDR511W, incubated two hours with chemical substance): 1.0
The level of expressed mRNA in the presence of chemical substance/The level of expressed mRNA in the absence of chemical substance (yeast gene YDR533C): 1.3
The level of expressed mRNA in the presence of chemical substance/The level of expressed mRNA in the absence of chemical substance (yeast gene YDR545W, incubated two hours with chemical substance): 1.4
The level of expressed mRNA in the presence of chemical substance/The level of expressed mRNA in the absence of chemical substance (yeast gene YEL001C, incubated two hours with chemical substance): 0.9
The level of expressed mRNA in the presence of chemical substance/The level of expressed mRNA in the absence of chemical substance (yeast gene YER004W, incubated two hours with chemical substance): 1.5
The level of expressed mRNA in the presence of chemical substance/The level of expressed mRNA in the absence of chemical substance (yeast gene YER035W, incubated two hours with chemical substance): 1.5
The level of expressed mRNA in the presence of chemical substance/The level of expressed mRNA in the absence of chemical substance (yeast gene YER079W, incubated two hours with chemical substance): 0.8
The level of expressed mRNA in the presence of chemical substance/The level of expressed mRNA in the absence of chemical substance (yeast gene YER106W, incubated two hours with chemical substance): 1.6
The level of expressed mRNA in the presence of chemical substance/The level of expressed mRNA in the absence of chemical substance (yeast gene YER121W): 1.3
The level of expressed mRNA in the presence of chemical substance/The level of expressed mRNA in the absence of chemical substance (yeast gene YER158C, incubated two hours with chemical substance): 0.8
The level of expressed mRNA in the presence of chemical substance/The level of expressed mRNA in the absence of chemical substance (yeast gene YER163C, incubated two hours with chemical substance): 0.8
The level of expressed mRNA in the presence of chemical substance/The level of expressed mRNA in the absence of chemical substance (yeast gene YER175C, incubated two hours with chemical substance): 0.9
The level of expressed mRNA in the presence of chemical substance/The level of expressed mRNA in the absence of chemical substance (yeast gene YER189W): 1.3
The level of expressed mRNA in the presence of chemical substance/The level of expressed mRNA in the absence of chemical substance (yeast gene YFL006W, incubated two hours with chemical substance): 1.4
The level of expressed mRNA in the presence of chemical substance/The level of expressed mRNA in the absence of chemical substance (yeast gene YFL010C, incubated two hours with chemical substance): 1.3
The level of expressed mRNA in the presence of chemical substance/The level of expressed mRNA in the absence of chemical substance (yeast gene YFL024C): 1.1
The level of expressed mRNA in the presence of chemical substance/The level of expressed mRNA in the absence of chemical substance (yeast gene YFL032W, incubated two hours with chemical substance): 0.9
The level of expressed mRNA in the presence of chemical substance/The level of expressed mRNA in the absence of chemical substance (yeast gene YGL037C, incubated two hours with chemical substance): 0.9
The level of expressed mRNA in the presence of chemical substance/The level of expressed mRNA in the absence of chemical substance (yeast gene YGL047W, incubated two hours with chemical substance): 1.3
The level of expressed mRNA in the presence of chemical substance/The level of expressed mRNA in the absence of chemical substance (yeast gene YGL053W, incubated two hours with chemical substance): 2.0
The level of expressed mRNA in the presence of chemical substance/The level of expressed mRNA in the absence of chemical substance (yeast gene YGL121C): 0.9
The level of expressed mRNA in the presence of chemical substance/The level of expressed mRNA in the absence of chemical substance (yeast gene YGL199C, incubated two hours with chemical substance): 0.7
The level of expressed mRNA in the presence of chemical substance/The level of expressed mRNA in the absence of chemical substance (yeast gene YGR038W): 1.3
The level of expressed mRNA in the presence of chemical substance/The level of expressed mRNA in the absence of chemical substance (yeast gene YGR101W, incubated two hours with chemical substance): 1.2
The level of expressed mRNA in the presence of chemical substance/The level of expressed mRNA in the absence of chemical substance (yeast gene YGR110W): 0.9
The level of expressed mRNA in the presence of chemical substance/The level of expressed mRNA in the absence of chemical substance (yeast gene YGR130C, incubated two hours with chemical substance): 1.4
The level of expressed mRNA in the presence of chemical substance/The level of expressed mRNA in the absence of chemical substance (yeast gene YGR142W): 1.3
The level of expressed mRNA in the presence of chemical substance/The level of expressed mRNA in the absence of chemical substance (yeast gene YGR154C, incubated two hours with chemical substance): 1.2
The level of expressed mRNA in the presence of chemical substance/The level of expressed mRNA in the absence of chemical substance (yeast gene YGR221C, incubated two hours with chemical substance): 0.9
The level of expressed mRNA in the presence of chemical substance/The level of expressed mRNA in the absence of chemical substance (yeast gene YHR138C, incubated two hours with chemical substance): 1.5
The level of expressed mRNA in the presence of chemical substance/The level of expressed mRNA in the absence of chemical substance (yeast gene YHR199C, incubated two hours with chemical substance): 1.2
The level of expressed mRNA in the presence of chemical substance/The level of expressed mRNA in the absence of chemical substance (yeast gene YIL023C, incubated two hours with chemical substance): 1.3
The level of expressed mRNA in the presence of chemical substance/The level of expressed mRNA in the absence of chemical substance (yeast gene YIL041W, incubated two hours with chemical substance): 0.5
The level of expressed mRNA in the presence of chemical substance/The level of expressed mRNA in the absence of chemical substance (yeast gene YIL057C): 1.3
The level of expressed mRNA in the presence of chemical substance/The level of expressed mRNA in the absence of chemical substance (yeast gene YIL087C, incubated two hours with chemical substance): 1.4
The level of expressed mRNA in the presence of chemical substance/The level of expressed mRNA in the absence of chemical substance (yeast gene YIR041W): 1.3
The level of expressed mRNA in the presence of chemical substance/The level of expressed mRNA in the absence of chemical substance (yeast gene YJL057C, incubated two hours with chemical substance): 1.5
The level of expressed mRNA in the presence of chemical substance/The level of expressed mRNA in the absence of chemical substance (yeast gene YJL066C, incubated two hours with chemical substance): 0.8
The level of expressed mRNA in the presence of chemical substance/The level of expressed mRNA in the absence of chemical substance (yeast gene YJL082W, incubated two hours with chemical substance): 1.7
The level of expressed mRNA in the presence of chemical substance/The level of expressed mRNA in the absence of chemical substance (yeast gene YJL100W): 1.3
The level of expressed mRNA in the presence of chemical substance/The level of expressed mRNA in the absence of chemical substance (yeast gene YJL151C, incubated two hours with chemical substance): 1.3
The level of expressed mRNA in the presence of chemical substance/The level of expressed mRNA in the absence of chemical substance (yeast gene YJL152W, incubated two hours with chemical substance): 1.6
The level of expressed mRNA in the presence of chemical substance/The level of expressed mRNA in the absence of chemical substance (yeast gene YJL161W, incubated two hours with chemical substance): 1.1
The level of expressed mRNA in the presence of chemical substance/The level of expressed mRNA in the absence of chemical substance (yeast gene YJL171C, incubated two hours with chemical substance): 1.0
The level of expressed mRNA in the presence of chemical substance/The level of expressed mRNA in the absence of chemical substance (yeast gene YJR008W, incubated two hours with chemical substance): 1.4
The level of expressed mRNA in the presence of chemical substance/The level of expressed mRNA in the absence of chemical substance (yeast gene YJR054W, incubated two hours with chemical substance): 1.0
